Reference: US20130116291A1, “ASSOCIATION OF XANTHINE OXIDASE INHIBITORS AND STATINS AND USE THEREOF” (Menarini International Operations Luxembourg S.A., priority 2010, published 2013)

Test system: Wistar rats subjected to a cholesterol-rich (2%) diet
Test: Hypocholesterolemic activity in rats on a cholesterol-rich diet (plasma total cholesterol)
Type: in vivo, rat
Settings: for Diminution of plasma total cholesterol in rats: cholesterol-rich (2%) diet
Method: Plasma levels of total cholesterol were measured with a standard colorimetric enzymatic method. […] Plasma levels of total cholesterol were determined at one-week intervals. Blood was collected from a tail vein.

SMILES | Diminution of plasma total cholesterol in rats (1 mg/Kg orally by gavage once per day for 4 weeks) | Diminution of plasma total cholesterol in rats (5 mg/Kg orally by gavage once per day for 4 weeks) | Diminution of plasma total cholesterol in rats ([…] orally by gavage once per day for 4 weeks) | Effect on cholesterol levels in the 4 weeks of observation (highest dose, 5 mg/kg per day, per os, Wistar rats, cholesterol-rich diet) | Reduction of the cholesterolemia values (in words) (doses of 5 and 10 mg/kg, starting from the first week of treatment) | Maximum reduction of the cholesterolemia values (highest dose (10 mg/kg, as calcium salt, per os daily), peak at 2 weeks, constant in the successive weeks)
Cc1nc(-c2ccc(OCC(C)C)c(C#N)c2)sc1C(=O)O [Febuxostat, febuxostat] | No diminution | No diminution | No diminution | did not significantly modify |  | 
CC(C)c1c(C(=O)Nc2ccccc2)c(-c2ccccc2)c(-c2ccc(F)cc2)n1CC[C@@H](O)C[C@@H](O)CC(=O)O [Atorvastatin, atorvastatin] |  |  |  |  | significant and dose-dependent reduction | 80%
